What is called Ki is a measure of affinity in units of concentration, obtained from inhibition or displacement. Higher therefore signals a looser hold on the target.

From ChEMBL document CHEMBL2203055, “From α4β2 Nicotinic Ligands to the Discovery of σ1 Receptor Ligands: Pharmacophore Analysis and Rational Design” (ACS Med Chem Lett, 2012) come the findings set out here.

Test [1] deals with Sigma non-opioid intracellular receptor 1 (Rattus norvegicus) (UniProt Q9R0C9). The test is described as follows: Displacement of [3H]pentazocine from sigma 1 receptor in rat brain membrane at 10 uM after 2.5 hrs by microbeta scintillation counting analysis. The format is cell membranes.
The test system of the next test is PC-12. The test is described as follows: Displacement of [3H]DTG from sigma 2 receptor in rat PC12 cell membrane at 10 uM after 2 hrs by microbeta scintillation counting analysis. The format is cell membranes.
Test [2] is described as follows: Displacement of [3H]DTG from sigma 2 receptor in rat PC12 cell membrane after 2 hrs by microbeta scintillation counting analysis. The test is classed as cell membranes. The note with it: pc-12. (In general: Displacement assays read how much labelled ligand stays bound in the presence of the test substance.)
For test [3], the target named is Sigma non-opioid intracellular receptor 1 (Rattus norvegicus, UniProt Q9R0C9). The test is described as follows: Displacement of [3H]pentazocine from sigma 1 receptor in rat brain membrane after 2.5 hrs by microbeta scintillation counting analysis. The test is classed as cell membranes.
In test [4] the target is Neuronal acetylcholine receptor; alpha3/beta2 (Rattus norvegicus, UniProt P04757+P12390). The test is described as follows: Displacement of [3H]epibatidine from alpha3beta2 nAChR after 4 hrs by liquid scintillation counting analysis. The test is classed as protein-complex assay.
The target in test [5] is Neuronal acetylcholine receptor; alpha2/beta4 (Rattus norvegicus, UniProt P12389+P12392). The test is described as follows: Displacement of [3H]epibatidine from alpha2beta4 nAChR after 4 hrs by liquid scintillation counting analysis. The test is classed as protein-complex assay.
Test [6] has as its target T1, Neuronal acetylcholine receptor; alpha4/beta2 (Rattus norvegicus, UniProt P09483+P12390). The test is described as follows: Displacement of [3H]epibatidine from alpha4beta2 nAChR after 4 hrs by liquid scintillation counting analysis. The test is classed as protein-complex assay.
Test [7] concerns the target Neuronal acetylcholine receptor; alpha3/beta4 (Rattus norvegicus, UniProt P04757+P12392). The test is described as follows: Displacement of [3H]epibatidine from alpha3beta4 nAChR after 4 hrs by liquid scintillation counting analysis. The test is classed as protein-complex assay.
Test [8] deals with T1, Neuronal acetylcholine receptor; alpha4/beta2. The test is described as follows: Displacement of [3H]epibatidine from alpha4beta2* nAChR in rat forebrain after 4 hrs by liquid scintillation counting analysis.
The target in test [9] is Neuronal acetylcholine receptor; alpha4/beta4 (Rattus norvegicus, UniProt P09483+P12392). The test is described as follows: Displacement of [3H]epibatidine from alpha4beta4 nAChR after 4 hrs by liquid scintillation counting analysis. The test is classed as protein-complex assay.
Test [10] concerns the target Sigma non-opioid intracellular receptor 1 (Homo sapiens, UniProt Q99720). The test is described as follows: Binding affinity to sigma 1 receptor.

Sequence of Sigma non-opioid intracellular receptor 1 (Rattus norvegicus, UniProt Q9R0C9) (Q9R0C9 whole entry): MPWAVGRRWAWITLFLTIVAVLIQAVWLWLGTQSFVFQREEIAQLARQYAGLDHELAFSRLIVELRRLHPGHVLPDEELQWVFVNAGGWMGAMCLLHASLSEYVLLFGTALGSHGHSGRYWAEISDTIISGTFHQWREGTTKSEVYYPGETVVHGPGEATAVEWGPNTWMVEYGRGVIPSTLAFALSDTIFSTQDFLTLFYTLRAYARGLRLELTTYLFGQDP
Sequence of Sigma non-opioid intracellular receptor 1 (Rattus norvegicus) (Q9R0C9 whole entry): as above
T1 sequence (P09483 whole entry): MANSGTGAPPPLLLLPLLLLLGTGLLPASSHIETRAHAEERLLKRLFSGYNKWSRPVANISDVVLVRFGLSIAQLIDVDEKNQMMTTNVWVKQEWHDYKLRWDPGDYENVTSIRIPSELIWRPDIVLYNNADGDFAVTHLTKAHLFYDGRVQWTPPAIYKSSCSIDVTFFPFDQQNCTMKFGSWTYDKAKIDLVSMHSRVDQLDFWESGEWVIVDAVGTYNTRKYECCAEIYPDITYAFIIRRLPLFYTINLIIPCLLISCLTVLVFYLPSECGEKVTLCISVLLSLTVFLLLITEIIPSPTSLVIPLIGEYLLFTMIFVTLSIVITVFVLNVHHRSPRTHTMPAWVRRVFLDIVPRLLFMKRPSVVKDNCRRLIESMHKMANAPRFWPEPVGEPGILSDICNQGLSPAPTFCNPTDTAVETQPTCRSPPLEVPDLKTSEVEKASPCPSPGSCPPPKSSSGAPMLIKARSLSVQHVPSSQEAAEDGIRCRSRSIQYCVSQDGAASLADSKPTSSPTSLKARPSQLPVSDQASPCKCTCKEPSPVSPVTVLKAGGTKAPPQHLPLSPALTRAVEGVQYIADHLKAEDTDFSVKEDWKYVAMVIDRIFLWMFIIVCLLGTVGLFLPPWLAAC
T1 sequence (P12390 whole entry): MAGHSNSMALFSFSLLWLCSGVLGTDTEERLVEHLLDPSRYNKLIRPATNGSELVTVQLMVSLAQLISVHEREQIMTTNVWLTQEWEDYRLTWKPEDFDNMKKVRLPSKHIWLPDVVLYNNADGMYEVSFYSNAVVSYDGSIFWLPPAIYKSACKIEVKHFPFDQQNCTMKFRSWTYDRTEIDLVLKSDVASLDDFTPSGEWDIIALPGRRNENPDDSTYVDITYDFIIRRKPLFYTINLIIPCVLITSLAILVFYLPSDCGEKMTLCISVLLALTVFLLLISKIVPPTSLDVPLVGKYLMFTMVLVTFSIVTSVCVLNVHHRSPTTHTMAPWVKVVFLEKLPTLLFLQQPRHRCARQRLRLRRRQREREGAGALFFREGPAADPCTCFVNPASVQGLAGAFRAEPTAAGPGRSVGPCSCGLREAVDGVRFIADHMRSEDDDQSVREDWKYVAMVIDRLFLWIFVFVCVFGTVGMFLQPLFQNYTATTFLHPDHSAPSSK
Sequence of Neuronal acetylcholine receptor; alpha3/beta2 (P04757 whole entry): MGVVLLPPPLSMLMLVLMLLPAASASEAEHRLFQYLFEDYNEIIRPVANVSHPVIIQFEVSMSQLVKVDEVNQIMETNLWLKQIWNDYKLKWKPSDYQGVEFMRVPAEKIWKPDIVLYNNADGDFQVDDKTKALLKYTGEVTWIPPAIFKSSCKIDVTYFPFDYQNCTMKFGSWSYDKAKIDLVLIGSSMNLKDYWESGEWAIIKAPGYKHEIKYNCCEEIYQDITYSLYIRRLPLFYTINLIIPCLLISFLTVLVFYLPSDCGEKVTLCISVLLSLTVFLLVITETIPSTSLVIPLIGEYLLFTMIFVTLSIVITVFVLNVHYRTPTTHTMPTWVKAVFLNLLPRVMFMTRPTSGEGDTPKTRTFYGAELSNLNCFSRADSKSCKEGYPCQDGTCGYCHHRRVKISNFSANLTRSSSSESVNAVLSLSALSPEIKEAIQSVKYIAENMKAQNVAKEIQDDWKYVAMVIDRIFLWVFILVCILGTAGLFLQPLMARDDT
Sequence of Neuronal acetylcholine receptor; alpha3/beta2 (P12390 whole entry): as the sequence (P12390 whole entry) above
Sequence of Neuronal acetylcholine receptor; alpha3/beta4 (P04757 whole entry): as the sequence (P04757 whole entry) above
Sequence of Neuronal acetylcholine receptor; alpha3/beta4 (P12392 whole entry): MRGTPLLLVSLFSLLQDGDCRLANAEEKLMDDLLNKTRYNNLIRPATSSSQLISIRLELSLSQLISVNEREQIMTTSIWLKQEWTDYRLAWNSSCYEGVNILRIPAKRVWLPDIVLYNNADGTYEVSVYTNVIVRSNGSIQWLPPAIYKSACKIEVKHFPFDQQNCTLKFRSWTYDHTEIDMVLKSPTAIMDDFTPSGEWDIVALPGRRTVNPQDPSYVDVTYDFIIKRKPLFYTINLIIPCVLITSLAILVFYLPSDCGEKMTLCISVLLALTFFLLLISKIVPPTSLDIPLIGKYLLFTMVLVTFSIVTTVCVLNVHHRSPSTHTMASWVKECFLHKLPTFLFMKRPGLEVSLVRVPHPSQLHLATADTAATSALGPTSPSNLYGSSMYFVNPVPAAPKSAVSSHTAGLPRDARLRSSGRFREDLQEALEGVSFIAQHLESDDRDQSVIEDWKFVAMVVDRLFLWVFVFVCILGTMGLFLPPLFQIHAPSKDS
Sequence of Sigma non-opioid intracellular receptor 1 (Homo sapiens, UniProt Q99720) (Q99720 whole entry): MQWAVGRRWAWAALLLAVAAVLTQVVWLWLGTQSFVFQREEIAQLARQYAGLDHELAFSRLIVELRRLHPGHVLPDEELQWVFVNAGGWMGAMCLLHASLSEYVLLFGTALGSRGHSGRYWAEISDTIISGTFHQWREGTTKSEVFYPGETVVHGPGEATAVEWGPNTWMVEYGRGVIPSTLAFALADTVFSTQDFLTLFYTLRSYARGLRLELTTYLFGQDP
Sequence of Neuronal acetylcholine receptor; alpha4/beta4 (P09483 whole entry): as the sequence (P09483 whole entry) above
Sequence of Neuronal acetylcholine receptor; alpha4/beta4 (P12392 whole entry): as the sequence (P12392 whole entry) above
Sequence of Neuronal acetylcholine receptor; alpha2/beta4 (P12389 whole entry): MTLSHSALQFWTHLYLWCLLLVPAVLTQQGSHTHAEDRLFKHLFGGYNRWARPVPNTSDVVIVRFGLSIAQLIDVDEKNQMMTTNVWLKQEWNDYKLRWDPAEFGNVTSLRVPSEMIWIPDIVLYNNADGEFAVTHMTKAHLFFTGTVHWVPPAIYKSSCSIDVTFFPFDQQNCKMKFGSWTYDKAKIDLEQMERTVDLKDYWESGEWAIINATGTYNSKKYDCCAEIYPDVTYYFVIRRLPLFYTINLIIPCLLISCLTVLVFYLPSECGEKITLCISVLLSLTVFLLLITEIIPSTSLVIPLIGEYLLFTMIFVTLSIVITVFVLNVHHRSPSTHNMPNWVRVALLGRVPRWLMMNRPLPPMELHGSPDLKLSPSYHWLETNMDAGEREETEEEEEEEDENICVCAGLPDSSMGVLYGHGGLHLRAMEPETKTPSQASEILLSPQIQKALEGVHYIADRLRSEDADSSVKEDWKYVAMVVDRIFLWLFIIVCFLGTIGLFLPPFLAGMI
Sequence of Neuronal acetylcholine receptor; alpha2/beta4 (P12392 whole entry): as the sequence (P12392 whole entry) above

In the case of `COCc1cc(OC[C@@H]2CCN2)no1`, the Activity (in [1]; in the test on PC-12) was below 50% throughout.

`c1c(OC[C@@H]2CCN2)noc1COCC1CC1` yielded an Activity in [1] below 50%. This compound also gave a Ki in test [2] of 369 nM.

Take `Cc1cc(OC[C@@H]2CCN2)on1`: the Activity (in test [1]; in the test on PC-12) was below 50% each time.

For `c1ccc(OCc2cc(OC[C@@H]3CCN3)on2)cc1`, affinity in test [3] was put at a Ki of 328 nM. Besides, the Activity with PC-12 is below 50%.

Turning to `Clc1cncc(OCc2cc(OC[C@@H]3CCN3)no2)c1`, the Ki was 103 nM in [3]; above 10000 nM in test [4]; 1820 nM in test [5]; 2220 nM in test [6]; 6100 nM in test [7]; above 10000 nM in test [8]. For the same compound, the inhibition constant (Ki) in test [9] is 5580 nM. This compound also came in with an Activity with PC-12 below 50%.

In test [10], `COC(=O)[C@@]1(c2ccccc2)C[C@H]1CN(C)C12CC3CC(CC(C3)C1)C2` returned a Ki of 2.1 nM.

Regarding `OCc1cc(OC[C@@H]2CCN2)on1`, the Activity (in [1]; in the test with PC-12) was below 50% in each case.

`Cc1cc(OC[C@@H]2CCN2)no1`: the Activity (in test [1]; with PC-12) was below 50% throughout.

In the case of `c1ccc(OCc2cc(OC[C@@H]3CCCN3)on2)cc1`, in test [3], affinity was put at a Ki of 4.2 nM. The same compound yielded an Activity in the test on PC-12 below 50%.
